This is an account of results in ChEMBL document CHEMBL4020732, “Synthesis, structural characterization and biological activity of novel Knoevenagel condensates on DLD-1 human colon carcinoma” (Bioorg Med Chem Lett, 2017).

The source made the active and inactive calls. The rule behind the calls is not given here.

Assay [1] in a line: Antioxidant activity assessed as ABTS radical scavenging activity at 100 uM after 5 mins by spectrophotometric method. It counts as functional.
The nature of assay [2]: Antioxidant activity of the compound assessed as DPPH radical scavenging activity at 1 mM after 5 mins by spectrophotometric method. It counts as functional.
Assay [3] can be described thus: Antioxidant activity assessed as ABTS radical scavenging activity after 5 mins by spectrophotometric method. It counts as functional. More on the design: unit not given here.
The nature of assay [4]: Antioxidant activity of the compound assessed as DPPH radical scavenging activity after 5 mins by spectrophotometric method. More on the design: unit not given here. In kind it is functional.
In assay [5] the test system is DLD-1. The assay is described as follows: Antioxidant activity in human DLD1 cells assessed as ratio of reduced glutathione to oxidized glutathione by ortho-phthalaldehyde probe based fluorescence spectrometric method (reference value: 3.19 +/- 0.2). It counts as functional.
The test system of assay [6] is DLD-1. The assay is described as follows: Cytotoxicity against human DLD1 cells by MTT assay. It counts as functional, cell-based.
In assay [7] the target is T1, Extracellular superoxide dismutase [Cu-Zn] (Homo sapiens) (UniProt P08294).
T1 sequence (whole entry): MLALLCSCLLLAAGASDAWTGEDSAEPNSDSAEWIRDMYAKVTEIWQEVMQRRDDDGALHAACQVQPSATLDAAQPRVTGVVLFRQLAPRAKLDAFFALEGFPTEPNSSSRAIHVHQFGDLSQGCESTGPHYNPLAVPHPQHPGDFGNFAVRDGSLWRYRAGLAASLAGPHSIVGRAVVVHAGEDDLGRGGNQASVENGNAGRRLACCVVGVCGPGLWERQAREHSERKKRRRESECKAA
Briefly: Inhibition of SOD3 in human DLD1 cells at 100 uM using xanthine as substrate pretreated for 24 hrs followed by substrate addition after 5 mins by NBT dye based spectrophotometric method. It counts as cell-based.

The subject of assay [8] is DLD-1. Briefly: Antioxidant activity in human DLD1 cells assessed as glutathione reactivity by measuring GSSG level per mg protein by ortho-phthalaldehyde probe based fluorescence spectrometric method (reference value: 0.69 nmol). In kind it is functional.
The test system of assay [9] is DLD-1. Briefly: Down regulation of MRP1 expression in human DLD1 cells at 100 uM after 24 hrs by fluorescence assay. In kind it is functional, cell-based.
Assay [10] in a line: Glutathione reactivity assessed as rate constant for total GSH loss by UV-vis spectrophotometric method.
The test system of assay [11] is DLD-1. Briefly: Antiproliferative activity against human DLD1 cells at 100 uM after 4 to 48 hrs by Alamar blue assay. In kind it is functional, cell-based.
Assay [12] deals with DLD-1. The assay is described as follows: Antioxidant activity in human DLD1 cells assessed as glutathione reactivity by measuring GSH level per mg protein by ortho-phthalaldehyde probe based fluorescence spectrometric method (reference value: 2.19 +/- 0.18 nmol). It counts as functional.
Assay [13] concerns the target Superoxide dismutase 1/2 (Homo sapiens) (UniProt P00441+P04179). The assay is described as follows: Inhibition of SOD1/SOD2 in human DLD1 cells at 100 uM using xanthine as substrate pretreated for 24 hrs followed by substrate addition measured after 5 mins by NBT dye based spectrophotometric method. In kind it is cell-based.
The target in assay [14] is T2, Superoxide dismutase [Mn], mitochondrial (Homo sapiens) (UniProt P04179).
T2 sequence (whole entry): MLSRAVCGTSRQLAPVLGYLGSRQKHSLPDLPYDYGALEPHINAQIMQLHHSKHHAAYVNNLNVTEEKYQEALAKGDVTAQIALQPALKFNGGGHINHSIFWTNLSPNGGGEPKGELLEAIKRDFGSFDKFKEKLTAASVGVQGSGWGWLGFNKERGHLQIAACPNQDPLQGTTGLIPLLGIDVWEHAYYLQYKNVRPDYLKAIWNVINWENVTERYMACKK
Briefly: Inhibition of mitochondrial SOD2 in human DLD1 cells at 100 uM using xanthine as substrate pretreated for 24 hrs followed by substrate addition after 5 mins by NBT dye based spectrophotometric method. It counts as cell-based.

Chain of Superoxide dismutase 1/2 (Homo sapiens) (P00441 whole entry, looked up, one chain of several): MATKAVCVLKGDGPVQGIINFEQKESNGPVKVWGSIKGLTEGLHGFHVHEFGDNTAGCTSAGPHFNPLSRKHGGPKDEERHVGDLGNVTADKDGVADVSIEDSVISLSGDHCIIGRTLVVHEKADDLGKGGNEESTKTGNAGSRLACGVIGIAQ

As to `COc1cc(/C=C/C(=O)CC(=O)/C=C/c2ccc(O)c(OC)c2)ccc1O` [CURCUMIN], the inhibition in assay [1] amounted to 95%; in [2] it was 91.7%. For the same molecule, the results for the 1/IC50 in [3] and in assay [4] were 0.177 and 0.038, respectively. Moreover, the figures for the IC50 in assay [3] and in assay [4] were 5.66 µM and 26.5 µM, respectively.
On to `CCOc1cc(/C=C/C(=O)C(=Cc2ccc(O)c(OC)c2)C(=O)/C=C/c2ccc(O)c(OCC)c2)ccc1O`, for which the Ratio with DLD-1 [5] worked out at 2.27. Moreover, the inhibition is 96.6% in assay [1] and 63% in [2]. Further, the half-maximal inhibitory concentration (IC50) was 9.63 µM in the assay with DLD-1 [6], 5.36 µM in assay [3] and 60.5 µM in assay [4]. Also, in [7], the inhibition result is “inactive”. The Activity with DLD-1 [8] is on record as 4.3 nmol; in the assay on DLD-1 [12] it was 9.75 nmol. The outcome (with DLD-1 [9]; in assay [10]; in the assay with DLD-1 [11]) was Active. The 1/IC50 was 0.187 in assay [3] and 0.017 in assay [4].
On to `COc1cc(/C=C/C(=O)C(=Cc2ccc(O)cc2)C(=O)/C=C/c2ccc(O)c(OC)c2)ccc1O`, for which, in the assay with DLD-1 [5], the Ratio is recorded as 3.99. The inhibition in assay [1] came to 89.2%; in assay [2], 73.8%. The results for the IC50 (with DLD-1 [6]; in assay [3]; in assay [4]) were 4.08 µM, 6.32 µM and 48.7 µM, respectively. The Activity stood at 1.2 nmol with DLD-1 [8] and 4.8 nmol in the assay with DLD-1 [12]. Moreover, the outcome (in the assay with DLD-1 [9]; in assay [10]; in the assay with DLD-1 [11]) was Active. Also, the inhibition entry in assay [13] was “Active”. For the same molecule, the 1/IC50 in assay [3] came to 0.158; in [4], 0.021.
Regarding `C#CC(=O)OCC`, the K in assay [10] stood at 1.75 M⁻¹ s⁻¹.
`CCOc1cc(/C=C/C(=O)C(=Cc2ccc(OC)c(OC)c2)C(=O)/C=C/c2ccc(O)c(OCC)c2)ccc1O`: in the assay with DLD-1 [5], the Ratio is recorded as 6.59. Further, the inhibition in assay [1] is 80.6%; in assay [2] it was 73.5%. Besides, the IC50 with DLD-1 [6] stood at 42 µM; in assay [3], 11.3 µM; in assay [4], 53.2 µM. The inhibition entry in assay [7] was “inactive”. In addition, the Activity in the assay with DLD-1 [8] is listed as 0.49 nmol; with DLD-1 [12], 3.24 nmol. In addition, the outcome (in [10]; in the assay on DLD-1 [11]) was Active. Further, the inhibition entry in assay [13] and in [14] was “Active” throughout. The 1/IC50 was 0.088 in assay [3] and 0.019 in assay [4].
In the case of `CCOc1cc(C=C(C(=O)/C=C/c2ccc(O)c(OCC)c2)C(=O)/C=C/c2ccc(O)c(OCC)c2)ccc1O`, the Ratio in the assay with DLD-1 [5] amounted to 3.8. Further, the inhibition came out at 88.5% in assay [1] and 50.6% in assay [2]. Further, the figures for the IC50 (in the assay on DLD-1 [6]; in assay [3]; in assay [4]) were 1.36 µM, 5.14 µM and 96.7 µM, respectively. In addition, the inhibition result in assay [7] and in assay [13] was “inactive” throughout. The Activity in the assay with DLD-1 [8] amounted to 0.84 nmol; in the assay with DLD-1 [12] it was 3.2 nmol. In addition, the outcome (in assay [10]; with DLD-1 [11]) was Active. Besides, the 1/IC50 in [3] was determined as 0.195; in assay [4], 0.01.
As to `COc1cc(C=C(C(=O)/C=C/c2ccc(O)c(OC)c2)C(=O)/C=C/c2ccc(O)c(OC)c2)ccc1O`, the Ratio in the assay on DLD-1 [5] stood at 1.63. The results for the inhibition in [1] and in assay [2] were 97.9% and 59.1%, respectively. Besides, the results for the half-inhibitory concentration (IC50) (in the assay on DLD-1 [6]; in assay [3]; in [4]) were 5.06 µM, 3.28 µM and 72.4 µM, respectively. Also, the figures for the Activity with DLD-1 [8] and in the assay with DLD-1 [12] were 2.8 nmol and 4.56 nmol, respectively. For the same molecule, the result (with DLD-1 [9]; in [10]; in the assay on DLD-1 [11]) was Active. Also, the inhibition result in [13] and in assay [14] was “Active” in each case. For the same molecule, the 1/IC50 turned out to be 0.305 in assay [3] and 0.014 in [4].
For `CCOc1cc(/C=C/C(=O)C(=Cc2ccc(OCC)c(OCC)c2)C(=O)/C=C/c2ccc(O)c(OCC)c2)ccc1O`, in the assay with DLD-1 [5], the Ratio turned out to be 0.65. Moreover, the figures for the inhibition in assay [1] and in assay [2] were 71.4% and 69%, respectively. In addition, the IC50 was determined as 3.45 µM in the assay on DLD-1 [6], 20.2 µM in [3] and 61.6 µM in assay [4]. In addition, the inhibition result in assay [7] and in assay [13] was “inactive” each time. The Activity with DLD-1 [8] was determined as 3.24 nmol; in the assay with DLD-1 [12], 2.12 nmol. Moreover, the result (in assay [10]; in the assay with DLD-1 [11]) was Active. Moreover, the 1/IC50 in [3] turned out to be 0.049; in assay [4] it was 0.016.
As to `C=CC(=O)OCCCC`, the K in [10] came to 0.142 M⁻¹ s⁻¹.
On to `CCOc1cc(/C=C/C(=O)C(=Cc2ccc(O)c(O)c2)C(=O)/C=C/c2ccc(O)c(OCC)c2)ccc1O`, for which the Ratio in the assay with DLD-1 [5] is 3.78. Besides, the inhibition in assay [1] was determined as 98.1%; in assay [2] it was 81.2%. In addition, the IC50 with DLD-1 [6] was found to be 5.1 µM; in assay [3], 3.63 µM; in assay [4], 25.2 µM. In addition, the inhibition entry in assay [7] and in assay [13] was “Active” each time. Also, the Activity in the assay with DLD-1 [8] is 1.16 nmol; with DLD-1 [12], 4.41 nmol. Further, the outcome (in assay [10]; with DLD-1 [11]) was Active. In addition, the values for the 1/IC50 in [3] and in assay [4] were 0.275 and 0.04, respectively.
`CCOc1cc(C=C(C(=O)/C=C/c2ccc(O)c(OC)c2)C(=O)/C=C/c2ccc(O)c(OC)c2)ccc1O`: the Ratio with DLD-1 [5] came out at 5. The inhibition in [1] was 94.3%; in assay [2], 42.3%. The IC50 came to 4.26 µM with DLD-1 [6], 3.98 µM in assay [3] and 123 µM in assay [4]. Moreover, the inhibition result in assay [7] is “inactive”. Further, the Activity in the assay on DLD-1 [8] worked out at 1.02 nmol; in the assay on DLD-1 [12] it was 5.12 nmol. In addition, the result (with DLD-1 [9]; in assay [10]; with DLD-1 [11]) was Active. In addition, in assay [13], the inhibition entry was “Active”. In addition, the 1/IC50 in assay [3] came to 0.251; in assay [4], 0.01.
For the molecule `COc1cc(/C=C/C(=O)C(=Cc2ccccc2)C(=O)/C=C/c2ccc(O)c(OC)c2)ccc1O`, the Ratio with DLD-1 [5] was found to be 3.19. The values for the inhibition in assay [1] and in assay [2] were 75.1% and 58.6%, respectively. In addition, the IC50 turned out to be 5.45 µM in the assay with DLD-1 [6], 8.58 µM in [3] and 84.4 µM in assay [4]. The inhibition result in assay [7] and in [13] was “inactive” throughout. Further, the Activity is 1.4 nmol in the assay on DLD-1 [8] and 4.47 nmol in the assay with DLD-1 [12]. The result (in the assay with DLD-1 [9]; in [10]; in the assay with DLD-1 [11]) was Active. The 1/IC50 came to 0.116 in [3] and 0.012 in [4].
Consider `COc1cc(/C=C/C(=O)C(=Cc2ccc(O)c(O)c2)C(=O)/C=C/c2ccc(O)c(OC)c2)ccc1O`, for which the Ratio in the assay on DLD-1 [5] is listed as 5.17. In addition, the values for the inhibition in assay [1] and in assay [2] were 98.2% and 92.5%, respectively. The IC50 in the assay with DLD-1 [6] was found to be 17.6 µM; in assay [3], 2.2 µM; in assay [4], 10.3 µM. For the same molecule, the figures for the Activity in the assay with DLD-1 [8] and in the assay with DLD-1 [12] were 0.5 nmol and 2.6 nmol, respectively. Moreover, the outcome in assay [10] was inactive. In the assay on DLD-1 [11], the outcome was Active. Moreover, the inhibition entry in assay [13] is “Active”. Further, the 1/IC50 in [3] is 0.455; in assay [4] it was 0.097.
`C/C=C(/C)C(C)=O`: the K in [10] turned out to be 0.013 M⁻¹ s⁻¹.
Take `CCOc1cc(/C=C/C(=O)CC(=O)/C=C/c2ccc(O)c(OCC)c2)ccc1O` [ETHYL CURCUMIN]: the inhibition turned out to be 96.1% in assay [1] and 93.4% in assay [2]. Further, the 1/IC50 in [3] was 0.156; in assay [4], 0.041. Also, the IC50 in assay [3] is 6.4 µM; in assay [4], 24.5 µM.
